Assay results: article PMC7926352, “Synthesis, Characterization and In Vitro Evaluation of Novel 5-Ene-thiazolo[3,2-b][1,2,4]triazole-6(5H)-ones as Possible Anticancer Agents” (Molecules, 2021)

Assays:
IGROV1 = format: cell-based, human; conditions: IGROV1, Ovarian Cancer
[1] = system: panel of approximately sixty human tumor cell lines; assay: NCI-60 human tumor cell lines screen (SRB), full panel; format: cell-based
Leukemia cell lines = system: Leukemia cell lines; set-up: LC50, values range inside panel: unit not given beside the values
CNS Cancer cell lines = system: CNS Cancer cell lines; set-up: LC50, values range inside panel: unit not given beside the values
[2] = system: Ovarian Cancer cell lines
[3] = system: Prostate Cancer cell lines; set-up: LC50, values range inside panel: unit not given beside the values

Ethyl(Z)-4-(3-(4-chloro-2-((6-oxothiazolo[3,2-b][1,2,4]triazol-5(6H)-ylidene)methyl)phenyl)propanamido)benzoate [Compound 2i]
GI50 (IGROV1): 6.6 µM | TGI (IGROV1): 20.89 µM | CC50 [1]: 63.1 µM | CC50 (CCRF-CEM): > 100 µM | CC50 (K-562): > 100 µM | CC50 (MOLT-4): > 100 µM | CC50 (RPMI-8226): 95.5 µM | CC50 (SR): > 100 µM | CC50 (EKVX): 50.1 µM | CC50 (HOP-62): 53.7 µM | CC50 (HOP-92): 83.2 µM | CC50 (NCI-H460): 56.2 µM | CC50 (HCC-2998): 66.1 µM | CC50 (HCT-116): 55 µM | CC50 (HCT-15): 55 µM | CC50 (HT29): 49 µM | CC50 (KM12): 55 µM | CC50 (SW-620): 46.8 µM | CC50 (SF-268): > 100 µM | CC50 (SF-295): 51.3 µM | CC50 (SF-539): 50.1 µM | CC50 (U251): 43.6 µM | CC50 (MALME-3M): 53.7 µM | CC50 (M14): 58.9 µM | CC50 (SK-MEL-2): 77.6 µM | CC50 (SK-MEL-5): 46.8 µM | CC50 (UACC-257): 63.1 µM | CC50 (OVCAR-3): 55 µM | CC50 (OVCAR-4): > 100 µM | CC50 (OVCAR-5): 58.9 µM | CC50 (OVCAR-8): 85.1 µM | CC50 (SK-OV-3): 61.6 µM | CC50 (A498): 56.2 µM | CC50 (ACHN): 53.7 µM | CC50 (CAKI-1): 55 µM | CC50 (RXF 393): 58.9 µM | CC50 (TK-10): 51.3 µM | CC50 (SN12C): 58.9 µM | CC50 (PC-3): > 100 µM | CC50 (MCF7): 50.1 µM | CC50 (NCI/ADR-RES): > 100 µM | CC50 (HS 578T): 60.2 µM | CC50 (BT-549): 60.2 µM | CC50 (MDA-MB-231/ATCC): > 100 µM | CC50 (Leukemia cell lines): 99.2 µM | LC50, values range inside panel (Leukemia cell lines): 95.49– >100 | CC50 (CNS Cancer cell lines): 66.2 µM | LC50, values range inside panel (CNS Cancer cell lines): 43.65– >100 | CC50 [2]: 68.7 µM | CC50 (Renal Cancer cell lines): 55 µM | CC50 [3]: 68.2 µM | LC50, values range inside panel [3]: 36.30– >100 | CC50 (Breast Cancer cell lines): 73.2 µM
